Experimental findings from PubChem BioAssay (NCI) are described below.

Several values for one entry are separate records, joined by “and”; a condition that tells them apart may be missing. Identical values can stand only once.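 96-well plates; 48 h exposure; 5 concentrations. Endpoints by linear interpolation between flanking doses. Not reached: highest tested concentration assigned. The concentration for 50% growth inhibition is given as GI50. TGI denotes the concentration required for complete inhibition of growth.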

What all share (assay): DTP human tumour cell line panel, 48 h
In assay [1] the test system is SK-MEL-5 melanoma.
The subject of assay [2] is COLO 205 colon.
Assay [3] concerns MDA-N.
Assay [4] deals with SF-539 CNS.
The test system of assay [5] is MDA-MB-231 breast.
In assay [6] the test system is RXF 393 renal.
Assay [7] deals with IGROV1 ovarian.
Assay [8] concerns SNB-75 CNS.
Assay [9] concerns SK-MEL-28 melanoma.
For assay [10], the system named is LOX IMVI melanoma.

Take `CC(Oc1ccccc1)C(=O)NNC(=O)OC(C)(C)C` (stereo not given): the TGI in [1], in assay [2], in assay [3], in [4], in [5] and in assay [6] was more than 100 µM each time. Also, the TGI in assay [7], in assay [8], in assay [9] and in [10] was more than 100 µM throughout.
With `CCOC(=O)/C=C(\C(=O)OCC)n1cc(C)c(=O)n(Cc2cnnn2COCCOC(C)=O)c1=O`, the TGI – broadly, the concentration at which net growth stops – in assay [1] is more than 51.6 µM; in [2], 4.33 µM; in [3] it was 44 µM; in assay [4] it was 6.89 µM; in assay [5], 42.7 µM; in assay [6], 13.2 µM. Further, the TGI in [7] was 21.8 µM; in assay [8], 39.9 µM; in assay [9], 31.5 µM; in assay [10], 21 µM.
Take `Cc1ccc2nc(-c3ccc(C(C)(C)C)cc3)oc(=O)c2c1`: the TGI is 27.6 µM in [1]; 35.5 µM in assay [2]; 67.5 µM in assay [3]; 40.6 µM in assay [4]; 54.2 µM in assay [5]; 88.5 µM in assay [6]. For the same compound, the TGI is 87.6 µM in assay [7], 47.7 µM in [8], 62.1 µM in assay [9] and 32.3 µM in assay [10].
As for `Brc1cccc(C2ON=C(c3ccccc3)N2C23CC4CC(CC(C4)C2)C3)c1` (stereo not given), the TGI in assay [1], in [2], in [3], in [4], in assay [5] and in assay [6] was more than 10 µM in each case. Besides, the TGI in [7], in [8], in [9] and in [10] was more than 10 µM in each case.
Take `COC1C(N(C)C)=C(c2ccccc2)C(=O)N2CCc3ccccc3C12` (stereo not given): the TGI in assay [1], in assay [2], in assay [3], in assay [4], in assay [5] and in assay [6] was more than 100 µM each time. Further, the TGI in assay [7], in assay [8], in assay [9] and in [10] was more than 100 µM each time.
`CC1OC(OC2C(O[C@H]3CC[C@@]4(C)C(=CC[C@H]5[C@@H]6C[C@@H]7O[C@]8(CC[C@@H](C)CO8)[C@@H](C)[C@@H]7[C@@]6(C)CC[C@@H]54)C3)OC(CO)C(O)C2O)C(O)C(O)C1O` (stereo not given in full): the TGI in assay [1] stood at 7.52 µM; in assay [2] it was 6.33 µM; in [3] it was 6.54 µM; in assay [4] it was 4.53 µM; in [5], 3.14 µM; in [6], 3.04 µM. The TGI in assay [7] was 6.08 µM; in assay [8], 2.62 µM; in [9], more than 11.8 µM; in assay [10] it was 3.49 µM.
For the compound `COc1ccc(NCC(=O)Nn2c(-c3ccccc3)nc3ccccc3c2=O)cc1`, the TGI in assay [1] was 32.8 µM; in assay [2] it was more than 100 µM; in assay [3] it was more than 100 µM; in assay [4], more than 100 µM; in assay [5], 84.4 µM; in assay [6] it was more than 10 µM. In addition, the TGI is more than 100 µM in assay [7], more than 100 µM in assay [8], more than 100 µM in assay [9] and 44 µM in assay [10].
For `NC(Cc1ccc2nc3c4ccccc4c(=O)cc-3oc2c1)C(=O)O` (stereo not given), the TGI in [1] was 34.6 µM; in [2], more than 100 µM; in assay [3], 29.4 µM; in [4], more than 100 µM; in assay [5] it was more than 100 µM; in assay [6] it was more than 100 µM. In addition, the TGI in assay [7], in assay [8], in [9] and in [10] was more than 100 µM in each case.
For the compound `CC(=O)OCC1OC(n2c(Br)nc3c2c(=O)n(C)c(=O)n3C)C(OC(C)=O)C1OC(C)=O` (stereo not given), the TGI in [1], in assay [2], in assay [3], in [4], in [5] and in assay [6] was more than 100 µM in each case. For the same compound, the TGI in assay [7], in assay [8], in [9] and in [10] was more than 100 µM in each case.
Turning to `Cc1nc2sc(C(=O)c3ccc(Cl)cc3)c(N)c2c(-c2ccccc2Cl)c1C(=O)Nc1ccccc1`, the TGI in assay [1] came out at 36.6 µM; in assay [2], 37.4 µM; in [3], 29.5 µM; in [4], 30.5 µM; in assay [5], 34.6 µM; in assay [6], 31.3 µM. For the same compound, the TGI in [7] was more than 70.5 µM; in assay [8] it was 29.7 µM; in assay [9], 27.4 µM; in [10] it was 31.7 µM.
Turning to `COC1(CC[C@@H](C)COC2OC(CO)C(O)C(O)C2O)O[C@H]2C[C@H]3[C@@H]4CC=C5C[C@@H](OC6OC(CO)C(O)C(OC7OC(CO)C(O)C(O)C7O)C6OC6OC(C)C(O)C(O)C6O)CC[C@]5(C)[C@H]4CC[C@]3(C)[C@H]2[C@@H]1C` (stereo not given in full), the TGI was 27.5 µM in assay [1]; more than 37.5 µM in assay [2]; 23.1 µM in assay [3]; 7.11 µM in assay [4]; 16.5 µM in assay [5]; 19.5 µM in assay [6]. The TGI in assay [7] is 19.8 µM; in assay [8], 11.2 µM; in assay [9] it was 12.4 µM; in [10] it was 7.03 µM.
Take `C/C(=C/CC[C@]1(CO)CC[C@]2(C)[C@H](CC[C@@H]3[C@@]4(C)CC[C@H](OC5OC(CO)C(O)C(O)C5OC5OC(CO)C(O)C(O)C5O)C(C)(C)[C@@H]4CC[C@]32C)[C@H]1O)CO` (stereo not given in full): the TGI in assay [1], in assay [2], in [3], in assay [4], in assay [5] and in assay [6] was more than 100 µM throughout. In addition, the TGI in assay [7], in [8], in assay [9] and in [10] was more than 100 µM in each case.
Consider `CC1(C)COC2=C(C1)C(=O)c1ccccc1C2=O`, for which the TGI in assay [1] amounted to 1.88 µM; in [2], 4.04 µM; in [3], 0.325 µM; in assay [4] it was 2.9 µM; in [5], 4 µM; in assay [6], 3.51 µM. The TGI is 3.45 µM in assay [7], 3.04 µM in assay [8], 3.11 µM in assay [9] and 4.22 µM in [10].
As for `O=C(SCc1cccc2ccccc12)c1ccc(Cl)cc1`, the TGI in assay [1], in assay [2], in [3], in assay [4], in assay [5] and in assay [6] was more than 100 µM throughout. Besides, the TGI in [7], in assay [8], in assay [9] and in [10] was more than 100 µM in each case.
In the case of `C/C(=N\O)c1cccc[n+]1Cc1ccccc1`, the TGI in assay [1], in [2], in assay [3], in assay [4], in [5] and in assay [6] was more than 100 µM in each case. The TGI in [7], in [8], in [9] and in assay [10] was more than 100 µM throughout.
With `O=C(Nc1ccc(S(=O)(=O)/N=c2\ncccn2C(=O)C(C(F)(F)F)C(F)(F)F)cc1)C(C(F)(F)F)C(F)(F)F`, the TGI in assay [1], in assay [2], in assay [3], in [4], in assay [5] and in [6] was more than 100 µM in each case. Also, the TGI in assay [7], in assay [8], in [9] and in [10] was more than 100 µM throughout.
On to `COc1ccccc1C1(c2c(OC)c(=O)c2=O)SCCCS1`, for which the TGI in [1], in assay [2], in assay [3], in [4], in assay [5] and in [6] was more than 100 µM in each case. The TGI in assay [7], in [8], in [9] and in assay [10] was more than 100 µM in each case.
Consider `CC1=CP(=O)(c2c(C(C)C)cc(C(C)C)cc2C(C)C)CCC1Cl` (stereo not given), for which the concentration for total growth inhibition (TGI) was 31.7 µM in [1]; 29.8 µM in assay [2]; 46.7 µM in assay [3]; 32.9 µM in assay [4]; 30.7 µM in [5]; 31.5 µM in assay [6]. The TGI in assay [7] worked out at 40.9 µM; in assay [8], 28.6 µM; in assay [9], 35.1 µM; in [10] it was 47.2 µM.
For the compound `COc1cc(OC)c2c(c1)OC(c1cccnc1)C(c1ccccc1)C2=O` (stereo not given), the TGI in assay [1], in assay [2], in assay [3], in assay [4], in [5] and in assay [6] was more than 100 µM in each case. The concentration for total growth inhibition (TGI) in assay [7], in assay [8], in assay [9] and in assay [10] was more than 100 µM each time.
For `COC(=O)C1OC(O[C@H]2CC[C@]3(C)[C@H]4CC=C5[C@@H]6CC(C)(C)CC[C@]6(C(=O)OC6OCC(O)C(O)C6OC6OC(C)C(OC7OCC(O)C(O)C7O)C(OC7OCC(O)(CO)C7O)C6O)[C@H](O)C[C@@]5(C)[C@]4(C)CC[C@H]3C2(C)C)C(O)C(O)C1O` (stereo not given in full), the TGI in [1] was 16.6 µM; in assay [2], 2.92 µM; in [3], 4.14 µM; in assay [4] it was more than 100 µM; in assay [5], 7.56 µM; in assay [6] it was 24.6 µM. Also, the TGI in assay [7] stood at 27.1 µM; in assay [8], 19.5 µM; in assay [9] it was 4.69 µM; in assay [10], 20.1 µM.
Consider `CN(C)c1ccc(/C=C/c2sc3ccccc3[n+]2C)cc1`, for which the TGI in [1] was 3.93 µM and 3.27 µM; in [2], 0.377 µM; in assay [3] it was 7.36 µM; in [4] it was 9.91 µM and 17.8 µM; in assay [5] it was 10.1 µM and 33.8 µM; in assay [6], 27.8 µM and 36.3 µM. For the same compound, the TGI was 19.7 µM and 15.3 µM in [7]; 15.7 µM and 6.34 µM in [9]; 6.87 µM and 3.34 µM in [10]. The GI50 (commonly the concentration at which growth is held to half of that of the control) was 0.185 µM in assay [2]; 2 µM and 7.25 µM in assay [5]; 11 µM and 5.02 µM in assay [6]; 4.29 µM and 1.21 µM in assay [7]; 0.35 µM and 2.3 µM in assay [8]; 2.34 µM and 1.11 µM in assay [10].
As for `Cn1cc(S(=O)(=O)NC(=O)Nc2ccc(Cl)cc2)c(=O)c2ccc(F)cc21`, the TGI in assay [1], in assay [2], in assay [3], in assay [4], in assay [5] and in [6] was more than 100 µM throughout. Besides, the TGI in assay [7], in assay [8], in assay [9] and in [10] was more than 100 µM throughout.
Take `Cc1cccc(CC(Cc2ccc(C)cc2C(=O)O)C(=O)O)c1` (stereo not given): the TGI in [1], in assay [2], in [3], in [4], in assay [5] and in assay [6] was more than 100 µM in each case. The TGI in assay [7], in assay [8], in assay [9] and in assay [10] was more than 100 µM each time.
